Experimental data reported in the NIST ThermoML archive (doi:10.1021/je800635g).

Assay: xn = mol fraction of the nth substance listed
Conditions: Liquid, Falling or rolling sphere viscometry

Cc1ccc(C)cc1 [1,4-dimethylbenzene] + CC(=O)O
viscosity [mPa·s]
Conditions | x1 = 0.1001 | x1 = 0.1997 | x1 = 0.3001 | x1 = 0.3997 | x1 = 0.5 | x1 = 0.6002 | x1 = 0.6988 | x1 = 0.7994 | x1 = 0.8994
313.15 K, 100 kPa | 0.725 | 0.63 | 0.571 | 0.522 | 0.52 | 0.514 | 0.508 | 0.505 | 0.499
313.15 K, 800 kPa | 0.731 | 0.635 | 0.576 | 0.527 | 0.524 | 0.519 | 0.512 | 0.509 | 0.503
313.15 K, 1600 kPa | 0.737 | 0.641 | 0.583 | 0.532 | 0.53 | 0.524 | 0.517 | 0.514 | 0.508
313.15 K, 2400 kPa | 0.743 | 0.647 | 0.585 | 0.537 | 0.535 | 0.529 | 0.522 | 0.519 | 0.513
313.15 K, 3200 kPa | 0.749 | 0.653 | 0.591 | 0.543 | 0.541 | 0.534 | 0.527 | 0.525 | 0.518
333.15 K, 100 kPa | 0.587 | 0.508 | 0.459 | 0.424 | 0.419 | 0.418 | 0.415 | 0.412 | 0.407
333.15 K, 800 kPa | 0.592 | 0.514 | 0.464 | 0.429 | 0.424 | 0.423 | 0.419 | 0.416 | 0.411
333.15 K, 1600 kPa | 0.598 | 0.52 | 0.47 | 0.434 | 0.429 | 0.428 | 0.424 | 0.422 | 0.416
333.15 K, 2400 kPa | 0.605 | 0.526 | 0.476 | 0.44 | 0.435 | 0.433 | 0.429 | 0.427 | 0.421
333.15 K, 3200 kPa | 0.611 | 0.532 | 0.482 | 0.445 | 0.44 | 0.438 | 0.435 | 0.432 | 0.427
353.15 K, 100 kPa | 0.481 | 0.419 | 0.378 | 0.351 | 0.347 | 0.342 | 0.341 | 0.339 | 0.339
353.15 K, 800 kPa | 0.487 | 0.425 | 0.384 | 0.356 | 0.352 | 0.347 | 0.346 | 0.343 | 0.344
353.15 K, 1600 kPa | 0.493 | 0.431 | 0.39 | 0.361 | 0.357 | 0.352 | 0.351 | 0.349 | 0.349
353.15 K, 2400 kPa | 0.499 | 0.437 | 0.396 | 0.367 | 0.363 | 0.357 | 0.356 | 0.354 | 0.354
353.15 K, 3200 kPa | 0.505 | 0.444 | 0.402 | 0.372 | 0.368 | 0.363 | 0.361 | 0.359 | 0.359
373.15 K, 100 kPa | 0.399 | 0.353 | 0.314 | 0.297 | 0.293 | 0.289 | 0.287 | 0.285 | 0.288
373.15 K, 800 kPa | 0.405 | 0.359 | 0.319 | 0.302 | 0.298 | 0.293 | 0.291 | 0.289 | 0.293
373.15 K, 1600 kPa | 0.412 | 0.365 | 0.326 | 0.307 | 0.303 | 0.299 | 0.296 | 0.294 | 0.298
373.15 K, 2400 kPa | 0.418 | 0.372 | 0.332 | 0.313 | 0.309 | 0.304 | 0.302 | 0.3 | 0.303
373.15 K, 3200 kPa | 0.424 | 0.378 | 0.338 | 0.319 | 0.315 | 0.309 | 0.307 | 0.305 | 0.308
393.15 K, 800 kPa | 0.34 | 0.294 | 0.269 | 0.252 | 0.253 | 0.249 | 0.256 | 0.254 | 0.254
393.15 K, 1600 kPa | 0.345 | 0.3 | 0.275 | 0.258 | 0.258 | 0.254 | 0.261 | 0.258 | 0.259
393.15 K, 2400 kPa | 0.352 | 0.306 | 0.281 | 0.263 | 0.264 | 0.26 | 0.266 | 0.264 | 0.265
393.15 K, 3200 kPa | 0.358 | 0.313 | 0.287 | 0.269 | 0.27 | 0.265 | 0.272 | 0.27 | 0.27
413.15 K, 800 kPa | 0.294 | 0.255 | 0.237 | 0.221 | 0.217 | 0.218 | 0.222 | 0.219 | 0.22
413.15 K, 1600 kPa | 0.3 | 0.26 | 0.243 | 0.227 | 0.217 | 0.223 | 0.227 | 0.225 | 0.225
413.15 K, 2400 kPa | 0.307 | 0.265 | 0.249 | 0.233 | 0.228 | 0.229 | 0.232 | 0.23 | 0.231
413.15 K, 3200 kPa | 0.313 | 0.271 | 0.255 | 0.239 | 0.233 | 0.234 | 0.237 | 0.235 | 0.236
433.15 K, 800 kPa | – | 0.223 | 0.208 | 0.196 | 0.195 | 0.194 | 0.194 | 0.191 | 0.194
433.15 K, 1600 kPa | 0.26 | 0.228 | 0.213 | 0.202 | 0.201 | 0.199 | 0.199 | 0.197 | 0.199
433.15 K, 2400 kPa | 0.267 | 0.233 | 0.219 | 0.208 | 0.206 | 0.205 | 0.204 | 0.202 | 0.204
433.15 K, 3200 kPa | 0.273 | 0.239 | 0.226 | 0.213 | 0.212 | 0.21 | 0.209 | 0.208 | 0.209
453.15 K, 800 kPa | 0.221 | 0.196 | 0.181 | 0.177 | 0.174 | 0.173 | 0.173 | 0.17 | 0.17
453.15 K, 1600 kPa | 0.227 | 0.201 | 0.186 | 0.183 | 0.18 | 0.179 | 0.178 | 0.176 | 0.175
453.15 K, 2400 kPa | 0.233 | 0.206 | 0.192 | 0.188 | 0.185 | 0.184 | 0.183 | 0.181 | 0.18
453.15 K, 3200 kPa | 0.24 | 0.211 | 0.198 | 0.194 | 0.191 | 0.189 | 0.188 | 0.187 | 0.184
473.15 K, 1600 kPa | 0.19 | 0.17 | 0.162 | 0.162 | 0.161 | 0.16 | 0.16 | 0.157 | 0.159
473.15 K, 2400 kPa | 0.196 | 0.175 | 0.168 | 0.167 | 0.166 | 0.165 | 0.164 | 0.162 | 0.164
473.15 K, 3200 kPa | 0.202 | 0.181 | 0.173 | 0.173 | 0.171 | 0.17 | 0.169 | 0.168 | 0.168
